2 compounds from ChEMBL document CHEMBL5729315, “Heterocyclylmethylidene derivatives and their use as modulators of mGluR5 receptors” (2022) can be followed below.

Assay [1] has as its target T1, Metabotropic glutamate receptor 5 (Homo sapiens, UniProt P41594). Put plainly: Fold Shift of Agonist Curve Determination: The PAM potency was evaluated by performing an agonist concentration response curve in the presence of the compounds. The compounds at fixed concentration (0.01 or 0.1 or 1 μM) were applied 10 minutes before the incubation of the agonist (quisqualate or glutamate) dose-response curve. The fold shift was determined as ratio of EC50 agonist curves in presence and in absence of test compound.

Assay [2] has as its target T1, Metabotropic glutamate receptor 5. Put plainly: Radioligand Binding Assay at Cloned Human mGluR5 Receptor Subtype: Affinity at transmembrane glutamate metabotropic cloned human mGluR5 receptor was evaluated according to the methods of Anderson (Anderson et al., J Pharmacol. Exp. Ther., (2002), Vol. 303(3), pp. 1044-51), with some modifications. Human cloned mGluR5 was obtained by re-suspending CHO T-REx h-mGluR5 cells (50 μg/well) in 20 mM HEPES, 2 mM MgCl2, 2 mM CaCl2, pH 7.4, that then were incubated in a final volume of 1 ml for 60 min at 25° C. with 4 nM [3H]MPEP in the absence or presence of competing drugs. Non-specific binding was determined in the presence of 10 μM MPEP. The incubation was stopped by addition of cold Tris buffer pH 7.4 and rapid filtration through 0.2% polyethyleneimine pretreated Filtermat 1204-401 (Perkin Elmer) filters. The filters were then washed with cold buffer and the radioactivity retained on the filters was counted by liquid scintillation spectrometry (Betaplate 1204 BS-Wallac).

T1 sequence (P41594 whole entry): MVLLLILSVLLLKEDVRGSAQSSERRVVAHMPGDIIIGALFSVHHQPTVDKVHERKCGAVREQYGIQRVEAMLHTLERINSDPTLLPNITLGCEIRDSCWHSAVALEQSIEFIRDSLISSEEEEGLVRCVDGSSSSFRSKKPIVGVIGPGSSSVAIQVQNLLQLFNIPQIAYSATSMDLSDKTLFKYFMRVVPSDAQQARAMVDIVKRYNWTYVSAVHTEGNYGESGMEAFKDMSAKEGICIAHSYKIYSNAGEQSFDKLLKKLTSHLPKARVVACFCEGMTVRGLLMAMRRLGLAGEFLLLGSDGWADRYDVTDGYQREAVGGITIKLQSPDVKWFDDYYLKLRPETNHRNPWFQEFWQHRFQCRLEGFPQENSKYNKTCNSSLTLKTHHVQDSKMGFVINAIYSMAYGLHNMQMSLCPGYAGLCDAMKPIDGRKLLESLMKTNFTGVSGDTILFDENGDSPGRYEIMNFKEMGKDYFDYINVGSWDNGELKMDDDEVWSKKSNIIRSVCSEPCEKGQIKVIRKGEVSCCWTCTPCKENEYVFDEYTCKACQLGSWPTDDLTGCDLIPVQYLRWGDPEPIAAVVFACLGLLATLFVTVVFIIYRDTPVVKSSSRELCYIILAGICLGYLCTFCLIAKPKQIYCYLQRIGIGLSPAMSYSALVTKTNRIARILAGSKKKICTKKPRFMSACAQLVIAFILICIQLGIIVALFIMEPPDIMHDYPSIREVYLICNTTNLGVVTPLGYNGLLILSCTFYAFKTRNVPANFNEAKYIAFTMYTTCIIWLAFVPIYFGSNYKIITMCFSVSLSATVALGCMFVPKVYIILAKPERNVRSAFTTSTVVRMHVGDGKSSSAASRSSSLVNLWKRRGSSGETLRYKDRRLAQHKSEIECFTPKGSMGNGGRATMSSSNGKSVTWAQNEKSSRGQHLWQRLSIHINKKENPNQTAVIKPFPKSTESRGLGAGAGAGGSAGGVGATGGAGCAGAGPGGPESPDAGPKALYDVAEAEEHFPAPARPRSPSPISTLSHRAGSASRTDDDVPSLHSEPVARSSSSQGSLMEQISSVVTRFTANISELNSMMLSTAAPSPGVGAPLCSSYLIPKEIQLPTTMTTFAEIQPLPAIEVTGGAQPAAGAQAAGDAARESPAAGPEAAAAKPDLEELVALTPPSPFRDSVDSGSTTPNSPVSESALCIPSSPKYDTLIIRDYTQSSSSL

A word on the EC50: it is the concentration needed to bring the measured effect to its halfway point. As a reminder, the Ki is the dissociation constant of the complex between target and ligand, obtained from inhibition or displacement. For `COc1cc(OC)nc(C(=O)N2CC/C(=C\C#Cc3cccc(Cl)c3)C(C)(C)C2)n1`, the EC50 in assay [1] is 51.7 nM. Further, the Ki in assay [2] is 2.24 nM. As to `Cc1cccc(C#CC=C2CC(C)(C)NC(C)(C)C2)n1`, the Ki in assay [2] is 26.9 nM.
